From the supplement of paper PMC10307832

Legend:
Assay in all cases: relative viability (nuclei count vs DMSO), 5 days (fraction); higher = more cells survive
VX-702 + Navitoclax = compound: NC(=O)c1ccc(N(C(N)=O)c2c(F)cccc2F)nc1-c1ccc(F)cc1F [VX-702] + CC1(C)CCC(c2ccc(Cl)cc2)=C(CN2CCN(c3ccc(C(=O)NS(=O)(=O)c4ccc(N[C@H](CCN5CCOCC5)CSc5ccccc5)c(S(=O)(=O)C(F)(F)F)c4)cc3)CC2)C1 [Navitoclax] (partner 0.5 µM)
In short: (§1)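 Each reported value is a median over duplicate plates. It expresses relative viability: treated-well nuclei count divided by vehicle-well nuclei count. Lung cancer cell lines in 1536-well plates were dosed by pin tool a day after seeding, alone with one drug or with a fixed anchor-drug dose plus five library-drug doses (not always all listed) in √10 steps, and nuclei were counted after 5 days.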

VX-702 + Linsitinib = compound: NC(=O)c1ccc(N(C(N)=O)c2c(F)cccc2F)nc1-c1ccc(F)cc1F [VX-702] + C[C@]1(O)C[C@@H](c2nc(-c3ccc4ccc(-c5ccccc5)nc4c3)c3c(N)nccn32)C1 [Linsitinib] (partner 1 µM)
In short: as §1

VX-702 + Palbociclib = compound: NC(=O)c1ccc(N(C(N)=O)c2c(F)cccc2F)nc1-c1ccc(F)cc1F [VX-702] + CC(=O)c1c(C)c2cnc(Nc3ccc(N4CCNCC4)cn3)nc2n(C2CCCC2)c1=O [Palbociclib] (partner 0.5 µM)
In short: as §1

Dabrafenib + Tozasertib = compound: CC(C)(C)c1nc(-c2cccc(NS(=O)(=O)c3c(F)cccc3F)c2F)c(-c2ccnc(N)n2)s1 [Dabrafenib] + Cc1cc(Nc2cc(N3CCN(C)CC3)nc(Sc3ccc(NC(=O)C4CC4)cc3)n2)n[nH]1 [Tozasertib] (partner 0.1 µM)
In short: as §1

| Cell Line | relative viability (VX-702 + Navitoclax; first compound 0.02 µM) | relative viability (VX-702 + Navitoclax; first compound 0.2 µM) | relative viability (VX-702 + Navitoclax; first compound 0.6325 µM) | relative viability (VX-702 + Navitoclax; first compound 2 µM) | relative viability (VX-702 + Linsitinib; first compound 0.02 µM) | relative viability (VX-702 + Linsitinib; first compound 0.2 µM) | relative viability (VX-702 + Linsitinib; first compound 0.6325 µM) | relative viability (VX-702 + Linsitinib; first compound 2 µM) | relative viability (VX-702 + Palbociclib; first compound 0.02 µM) | relative viability (VX-702 + Palbociclib; first compound 0.2 µM) | relative viability (VX-702 + Palbociclib; first compound 0.6325 µM) | relative viability (VX-702 + Palbociclib; first compound 2 µM) | relative viability (Dabrafenib + Tozasertib; first compound 0.003 µM) | relative viability (Dabrafenib + Tozasertib; first compound 0.009487 µM) | relative viability (Dabrafenib + Tozasertib; first compound 0.03 µM) | relative viability (Dabrafenib + Tozasertib; first compound 0.09487 µM) | relative viability (Dabrafenib + Tozasertib; first compound 0.3 µM) |
| --- | --- | --- | --- | --- | --- | --- | --- | --- | --- | --- | --- | --- | --- | --- | --- | --- | --- |
| COR-L 105 | 0.82 | 0.61 | 0.851 | 1.08 | 0.965 | 0.916 | 0.956 | 1.4 | 0.38 | 0.409 | 0.432 | 0.38 | 0.332 | 0.415 | 0.362 | 0.347 | 0.395 |
| A-427 | 0.877 | 0.919 | 0.905 | 0.962 | 1.1 | 1.05 | 1.17 | 1.17 | 0.541 | 0.52 | 0.537 | 0.526 |  | 0.202 | 0.187 | 0.196 | 0.209 |
| NCI-H1734 | 0.814 | 0.695 | 0.685 | 0.743 | 0.977 | 0.769 | 0.794 | 0.763 | 0.347 | 0.288 | 0.323 | 0.308 |  | 0.248 | 0.251 | 0.312 | 0.271 |
| NCI-H1944 | 1.04 | 1.03 | 1.15 | 0.973 | 1.07 | 1.06 | 1.31 | 0.903 | 0.303 | 0.326 | 0.337 | 0.32 | 0.252 | 0.262 | 0.233 | 0.254 | 0.239 |
| LOU-NH91 | 0.638 | 0.638 | 0.643 | 0.422 | 1.01 | 0.926 | 0.933 | 0.687 | 0.554 | 0.532 | 0.544 | 0.536 | 0.704 | 0.78 | 0.679 | 0.698 | 0.761 |
| NCI-H2009 | 1.18 | 1.2 | 1.25 | 1.47 | 1.33 | 1.23 | 1.21 | 1.34 | 0.247 | 0.25 | 0.257 | 0.246 | 0.703 | 0.759 | 0.672 | 0.649 | 0.62 |
| HCC-15 | 0.691 | 0.648 | 0.656 | 0.699 | 0.825 | 0.766 | 0.843 | 0.952 | 0.732 | 0.639 | 0.724 | 0.491 | 0.602 | 0.506 | 0.355 | 0.398 | 0.386 |
| NCI-H727 | 0.439 | 0.508 | 0.498 | 0.445 | 0.516 | 0.271 | 0.259 | 0.306 | 0.635 | 0.641 | 0.613 | 0.664 |  | 0.754 | 0.654 | 0.667 | 0.793 |
